What was measured:
Assay in all cases: combination Emax (second highest fraction inhibited in the dose matrix, 72 h); higher = more inhibition; extreme values may be limits of the assay
[1] = system: SU-DHL-8 (B-Cell Non-Hodgkin's Lymphoma)
How it was run: (§1)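 Cell lines in DMEM/F12 or RPMI with 10% FBS were plated in 1536-well plates, held 24 hours at 37°C, 5% CO2, then given two-drug dose matrices for 72 hours (DMSO typically 0.2%). Viability was read by CellTiter-Glo 2.0 luminescence and scaled as inhibition from 0 (vehicle wells) to 1 (blank wells). Combination Emax is the second-highest inhibition in the matrix; Bliss excess is observed combination effect minus expected EA + EB − EA·EB, EA and EB being single-agent effects.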

[2] = system: KCL-22 (Chronic Myelogenous Leukemia)
How it was run: as §1

[3] = system: KARPAS-45 (T-Lymphoblastic Leukemia)
How it was run: as §1

[4] = system: HDQ-P1 (Breast Carcinoma)
How it was run: as §1

[5] = system: BFTC-905 (Bladder Carcinoma)
How it was run: as §1

MEL-JUSO (Melanoma) = system: MEL-JUSO (Melanoma)
How it was run: as §1

[6] = system: KM12 (Colorectal Carcinoma)
How it was run: as §1

[7] = system: BL-41 (Burkitt's Lymphoma)
How it was run: as §1

LN-18 (Glioblastoma) = system: LN-18 (Glioblastoma)
How it was run: as §1

ES8 (Ewing's Sarcoma) = system: ES8 (Ewing's Sarcoma)
How it was run: as §1

[8] = system: HL-60 (Acute Myeloid Leukemia)
How it was run: as §1

[9] = system: SW1417 (Colorectal Carcinoma)
How it was run: as §1

CHP-212 (Neuroblastoma) = system: CHP-212 (Neuroblastoma)
How it was run: as §1

[10] = system: MS751 (Cervical Carcinoma)
How it was run: as §1

[11] = system: KYSE-180 (Esophageal Squamous Cell Carcinoma)
How it was run: as §1

[12] = system: GR-ST (B-Lymphoblastic Leukemia)
How it was run: as §1

[13] = system: SR (Other Blood Carcinomas)
How it was run: as §1

[14] = system: L-540 (Hodgkin's Lymphoma)
How it was run: as §1

[15] = system: PANC-08-13 (Pancreatic Carcinoma)
How it was run: as §1

NCI-H2818 (Mesothelioma) = system: NCI-H2818 (Mesothelioma)
How it was run: as §1

SMILES	combination Emax [1]	combination Emax [2]	combination Emax [3]	combination Emax [4]	combination Emax [5]	combination Emax (MEL-JUSO (Melanoma))	combination Emax [6]	combination Emax [7]	combination Emax (LN-18 (Glioblastoma))	combination Emax (ES8 (Ewing's Sarcoma))	combination Emax [8]	combination Emax [9]	combination Emax (CHP-212 (Neuroblastoma))	combination Emax [10]	combination Emax [11]	combination Emax [12]	combination Emax [13]	combination Emax [14]	combination Emax [15]	combination Emax (NCI-H2818 (Mesothelioma))
C[C@@H](c1ccc2nccn2c1)n1nnc2ncc(-c3cnn(C)c3)nc21 [Savolitinib] + CC1(C)CCC(CN2CCN(c3ccc(C(=O)NS(=O)(=O)c4ccc(NCC5CCOCC5)c([N+](=O)[O-])c4)c(Oc4cnc5[nH]ccc5c4)c3)CC2)=C(c2ccc(Cl)cc2)C1 [Venetoclax] (first compound max 1 µM, 7x7, partner max 1 µM)	0.288	0.137	0.322	0.117	0.164	0.126	0.058	0.106	0.146	0.259	0.658	0.126	0.108	0.176	0.134	0.218	0.437	0.246	0.109	0.127
Cc1c2c(nn1C)CSCc1cc(n(C)n1)CSc1cc(c3ccccc3c1)OCCCc1c(C(=O)O)n(C)c3c-2c(Cl)ccc13 [AZD5991] + CCN(CCO)CCCOc1ccc2c(Nc3cc(CC(=O)Nc4cccc(F)c4)[nH]n3)ncnc2c1 [AZD2811] (first compound max 1 µM, 7x7, partner max 1 µM)	0.931	0.921	1	0.159	0.794	0.592	0.249	1	0.701	1	1	0.23	0.86	0.855	0.942	0.336	0.988	1	0.281	0.287
Cc1nc(Nc2ncc(C(=O)Nc3c(C)cccc3Cl)s2)cc(N2CCN(CCO)CC2)n1 [Dasatinib] + CC(=O)Nc1cccc(-n2c(=O)n(C3CC3)c(=O)c3c(Nc4ccc(I)cc4F)n(C)c(=O)c(C)c32)c1 [Trametinib] (first compound max 2 µM, 7x7, partner max 1 µM)	0.0526	0.93	0.592	0.958	0.863	0.497	0.714	0.144	0.353	0.223	0.703	0.834	1	0.282	0.411	0.361	0.245	0.148	0.738	0.582
Cn1cnc2c(F)c(Nc3ccc(Br)cc3Cl)c(C(=O)NOCCO)cc21 [Selumetinib] + C=CCn1c(=O)c2cnc(Nc3ccc(N4CCN(C)CC4)cc3)nc2n1-c1cccc(C(C)(C)O)n1 [AZD1775] (first compound max 10 µM, partner max 1 µM)	1	0.943	0.909	0.673	0.665	0.604	0.884	1	0.461	0.491	0.712	0.704	0.978	0.575	0.544	0.801	0.978	0.905	0.305	0.303
COc1cccc(OCCCN)c1-c1cc(Nc2cnc(C#N)cn2)n[nH]1 [Prexasertib] + C=CCn1c(=O)c2cnc(Nc3ccc(N4CCN(C)CC4)cc3)nc2n1-c1cccc(C(C)(C)O)n1 [AZD1775] (first compound max 1 µM, partner max 1 µM)	0.964	0.997	1	0.856	0.96	0.747	0.862	1	0.807	0.945	0.97	0.64	0.811	0.701	0.983	0.82	1	0.967	0.544	0.359
COc1nnc2ccc(N3CCC(c4ccc(OCCN5CCN(C)C(=O)[C@H]5C)cc4)CC3)nn12 [AZD5153] + Cc1c2c(nn1C)CSCc1cc(n(C)n1)CSc1cc(c3ccccc3c1)OCCCc1c(C(=O)O)n(C)c3c-2c(Cl)ccc13 [AZD5991] (first compound max 1 µM, 7x7, partner max 1 µM)	0.998	0.902	1	0.412	0.746	0.306	0.648	1	0.616	0.891	1	0.459	1	0.919	0.513	0.798	0.968	1	0.825	0.441

— the supplement of paper PMC11061612
